According to article PMC4747407 (Oncotarget, 2015):

Columns and labels:
[1] = tested on: B16-F10 mouse melanoma isografts; assay: B16-F10 mouse melanoma isograft model, combination with TMZ; type: in vivo
Protocol: (§1) All studies were performed according to IACUC approved protocols. The general health of mice was monitored daily.
TMZ combination in B16-F10 isograft model: female C57BL/6 mice were inoculated subcutaneously with B16-F10 cells (2 × 10^5). Following randomization by body weight, drug treatment was initiated 1 day post-inoculation. […] TMZ was administered daily on days 1 to 5 at 50 mg/kg as a single agent or in combination. […] The control group was treated with vehicle (0.5% methyl cellulose in water). E7449 or vehicle was administered first and when dosing of all animals was complete TMZ was administered to animals receiving the combination.

[2] = biological target: T1, PARP1 (Gallus gallus, UniProt P26446); assay: PARP trapping: western blot of chromatin-bound fraction of MMS-damaged DT40 cells; type: cell-based, avian; settings: 0.05% MMS, inhibitor 0.1–10 μmol/L, 30 min
T1 construct: endogenous in cells; host or cells: DT40 cells
T1 sequence (P26446 whole entry): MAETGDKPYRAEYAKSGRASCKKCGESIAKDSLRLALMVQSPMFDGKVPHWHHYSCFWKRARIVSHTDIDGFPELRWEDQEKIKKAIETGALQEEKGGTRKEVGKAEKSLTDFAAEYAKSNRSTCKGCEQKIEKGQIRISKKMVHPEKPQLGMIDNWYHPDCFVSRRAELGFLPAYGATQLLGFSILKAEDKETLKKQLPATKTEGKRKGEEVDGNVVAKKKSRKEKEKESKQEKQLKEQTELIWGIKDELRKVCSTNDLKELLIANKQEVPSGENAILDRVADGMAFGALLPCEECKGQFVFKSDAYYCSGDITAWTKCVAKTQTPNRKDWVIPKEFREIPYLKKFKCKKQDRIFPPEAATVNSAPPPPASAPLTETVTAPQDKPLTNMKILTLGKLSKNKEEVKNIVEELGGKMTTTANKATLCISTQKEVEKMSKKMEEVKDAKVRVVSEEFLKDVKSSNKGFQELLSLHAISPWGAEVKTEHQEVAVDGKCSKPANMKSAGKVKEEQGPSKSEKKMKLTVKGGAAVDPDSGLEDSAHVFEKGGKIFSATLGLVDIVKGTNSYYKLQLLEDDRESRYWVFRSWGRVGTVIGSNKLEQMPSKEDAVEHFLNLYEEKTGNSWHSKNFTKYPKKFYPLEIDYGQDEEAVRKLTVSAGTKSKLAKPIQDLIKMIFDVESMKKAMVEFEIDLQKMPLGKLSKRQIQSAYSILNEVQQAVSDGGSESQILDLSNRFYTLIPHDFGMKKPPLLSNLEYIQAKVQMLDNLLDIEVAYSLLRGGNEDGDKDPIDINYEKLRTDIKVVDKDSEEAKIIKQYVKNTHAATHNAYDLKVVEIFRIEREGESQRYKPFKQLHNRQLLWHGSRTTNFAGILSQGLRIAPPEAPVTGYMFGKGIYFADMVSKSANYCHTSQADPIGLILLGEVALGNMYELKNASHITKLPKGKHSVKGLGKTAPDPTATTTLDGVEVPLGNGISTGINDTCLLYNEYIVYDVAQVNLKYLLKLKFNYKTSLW
Protocol: Following binding of appropriate secondary antibodies labeled with IRDye® (LI-COR), image analysis and quantitation of blots was performed with Image Studio software for the LI-COR Odyssey system (version 2.1.10).

[3] = tested on: MDA-MB-436 human breast cancer xenografts; assay: MDA-MB-436 subcutaneous xenograft model, single agent; type: in vivo, mouse
Protocol: as §1

[4] = tested on: DLD-1 cells; assay: Gene expression profiling of Wnt-related genes (TLDA qPCR) in DLD-1 cells; type: cell-based, human; settings: 30 μmol/L, 72 h
Protocol: Gene expression profiling was performed using a custom designed TaqMan® low density array (TLDA). Total RNA was isolated from cell lines using RNeasy Mini Kit (Qiagen) and from xenograft tumor FFPE tissue using RecoverAll Total Nucleic Acid Isolation (Ambion). Human and mouse, real-time qPCR TLDAs (384-well micro fluidic card) were designed with genes selected based on their involvement in Wnt signalling (see supplementary Tables 2 and 3 for lists of genes on TLDAs). cDNA was generated from total RNA using High Capacity cDNA Reverse Transcription kit (Life Technologies) or SuperScript® VILO™ Master Mix (Life Technologies). 100 ng cDNA was combined with TaqMan® Gene Expression Master Mix (Life Technologies) for the cell lines and TaqMan® Advanced FAST Master Mix (Life Technologies) for the xenograft tissue for each port (in duplicate). TLDAs were run based on recommended cycling times for each master mix. Ct values were calculated and imported into GeneData Analyst for further analysis. To calculate the ΔCts, gene expression was normalized to several housekeeping genes. Relative fold change was calculated by comparison to the DMSO or vehicle-treated controls for each sample. A student's t-test was used to calculate P-values and hierarchical clustering used Manhattan distance and complete linkage plotting of selected significant genes to generate heat maps.

[5] = E7449 10, 30, 100 mg/kg + TMZ 50 mg/kg

O=c1[nH]nc2c3c(cccc13)N=C(CN1Cc3ccccc3C1)N2 [E7449, 8-(isoindolin-2-ylmethyl)-2,9-dihydro-3H-pyridazino[3,4,5-de]quinazolin-3-one]
growth of subcutaneous tumors, single agent ([1]; E7449 100 mg/kg or TMZ 50 mg/kg, oral once daily): moderately inhibited | animal lethality, combination with TMZ [1, 5]: No animal lethality occurred | body weight, combination with TMZ [1, 5]: body weight loss was observed in all 3 combination groups | tumor growth inhibition, combination with TMZ ([1]; E7449 10, 30 and 100 mg/kg + TMZ 50 mg/kg, oral): significantly enhanced tumor growth inhibition | PARP1 trapping onto chromatin [2]: binding of PARP1 to chromatin in a dose responsive manner | tolerability ([3]; 30 or 100 mg/kg once daily for 28 days): well-tolerated without any significant body weight loss or deaths | antitumor activity, single agent ([3]; 30 or 100 mg/kg oral once daily for 28 days): statistically significant antitumor activity | number of Wnt-related genes with significantly altered expression [4]: 40 genes
